{"source": "patent US10016356B2", "about": "“Sebum secretion inhibitory agent” (BASF Beauty Care Solutions France S.A.S., priority 2008, dated 2018)", "key": {"[1]": {"system": "Caucasian and Asian volunteers", "experiment": "Determination of squalene in Sebutape patches (HPTLC, densitometry)", "format": "in vivo, human", "conditions": "after 28 days of treatment; zinc gluconate 1%", "experimental": "(§1) The principle of this evaluation is based on the clinical and instrumental analysis of samples of secretions of sebum using Sebutape™ patches according to the conventional method.\n(§2) Caucasian and Asian volunteers applied a test product once a day, in blind conditions. Clinical and instrumental assessments, by application of Sebutape™ patches, were carried out on D0, D14 and D28 and the contents of these samples of Sebutape™ patches were analysed quantitatively by image analyser (polarimetric imaging). Determination of the squalene taken in the Sebutape™ patches was carried out as follows:\nThe Sebutape™ patches were treated by extraction with 10 ml of ether. The lipid residues were deposited on an HPTLC silica gel nanoplate on an aluminium support, one lane of which was reserved for receiving a deposit of 10 μg of squalene standard.\nThe contents of the plates were subjected to migration in heptane.\nThe squalene spots were then quantified by densitometry using an instrument of the ChromatoScan CS-93 (Shimadzu) type. Reading was based on absorption at 450 nm and the area of the peaks was expressed in arbitrary units in the table of results given below."}, "[2]": {"system": "Caucasian and Asian volunteers", "experiment": "Clinical assessment of pore size and shiny appearance in volunteers applying the product once a day", "format": "in vivo, human", "conditions": "after 28 days of treatment, extract at 2%, zinc gluconate 1%", "experimental": "as §2\n(§3) The experiment was conducted on Caucasian and Asian volunteers according to the conditions described in Example 3 for 28 days of treatment (last application on D27 in the evening). Assessments carried out on D30 allowed the persistence of the effect of an extract according to the invention on the production of sebum to be evaluated, two days after stopping the treatment."}, "[3]": {"system": "Caucasian and Asian volunteers", "experiment": "Number of active sebaceous glands (number of spots on Sebutape patches, image analysis)", "format": "in vivo, human", "conditions": "extract at 2%, zinc gluconate 1%", "experimental": "as §1, §2\nAt 28 days of treatment, the number of active sebaceous glands had decreased by 7.4% in the subjects who had applied the extract according to Example 1a) at 2% (measurement of the number of spots present on the patches compared against D0).\nas §3"}, "[4]": {"system": "squalene synthesis on explants of normal human skin", "experiment": "Biosynthesis of squalene from 4-14C mevalonate on explants of normal human skin (in vitro)", "format": "cell-based", "conditions": "percentage relative to untreated negative control; extracts of culture media; 24 h; n=3 biopsies; extract at 2%, zinc gluconate at 1%", "experimental": "The principle of this evaluation is based on the measurement of the biosynthesis of squalene, a specific tracer of the production of human sebum by the sebocytes, from radiolabelled mevalonic acid.\n1) Freshly taken biopsies of human skin (n=3) are incubated in 5 ml of culture medium in the presence or absence of the test products for 24 h.\n2) An amount of radioactive products of 2 μCi of mevalonate 4-^14C is then added to the biopsies and the whole is incubated again for 24 h.\n3) Extraction of the culture media and of the surface of the skin is carried out with isopropyl ether, then the skin samples are dried and weighed as dry weight.\n4) The extraction products are analysed by thin-layer chromatography and the quantity of metabolites of ^14C-mevalonate (squalene) is evaluated.\nThe squalene on the surface of the skin in culture is extracted, then deposited on HPTLC (high-performance thin layer chromatography) plates and migrated after addition of 10 μg of a squalene standard by deposition in the presence of heptane as migration solvent. The radioactivity of the squalene is visualized in a conventional manner. Each radioactive spot corresponding to squalene is scraped onto the HPTLC plates and the radioactivity is measured using a scintillation counter. Each count was expressed in grams of dry tissue. […]"}, "Asian volunteers": {"system": "Asian volunteers", "experiment": "Self-evaluation of skin texture (refinement of skin grain)", "format": "in vivo, human", "conditions": "2 days after stopping the 28-day treatment, extract at 2%, zinc gluconate positive control", "experimental": "as §3\nMoreover, 2 days after stopping the treatment, 71% of the Asian volunteers who had applied the extract according to Example 1a) at 2% declared that there was refinement of their skin grain (p<0.05). In comparison, only 52% of the volunteers in the group of volunteers who had applied the positive control (zinc gluconate) noticed an improvement in this parameter."}}, "data": [{"substance": "zinc gluconate", "values": [{"measurement": "change of content of squalene in the sebum (signed)", "setting": "[1]", "value": "−14", "unit": "%"}, {"measurement": "pore size reduced by (clinical assessment)", "setting": "[2]", "value": 17.5, "unit": "%"}, {"measurement": "Active sebaceous glands, % Dn/D 0", "setting": "[3]; 2 days after D 28 (after stopping the treatment)", "value": "−3.8", "unit": "%"}, {"measurement": "Active sebaceous glands, % Dn/D 0", "setting": "[3]; D 28", "value": "+8.5%"}, {"measurement": "Measurement of squalene synthesis, Mean value", "setting": "[4]", "value": 76.6, "unit": "%"}, {"measurement": "volunteers declaring refinement of their skin grain (self-evaluation)", "setting": "Asian volunteers", "value": 52, "unit": "%"}]}]}
